Molecular target: T1, MorFDH (NAD+-dependent formate dehydrogenase from Moraxella sp. C-1) (Moraxella sp., UniProt O08375)
T1 construct: gene fdh; homodimer; 399 residues located, last two C-terminal residues not seen
T1 sequence (O08375 2-402): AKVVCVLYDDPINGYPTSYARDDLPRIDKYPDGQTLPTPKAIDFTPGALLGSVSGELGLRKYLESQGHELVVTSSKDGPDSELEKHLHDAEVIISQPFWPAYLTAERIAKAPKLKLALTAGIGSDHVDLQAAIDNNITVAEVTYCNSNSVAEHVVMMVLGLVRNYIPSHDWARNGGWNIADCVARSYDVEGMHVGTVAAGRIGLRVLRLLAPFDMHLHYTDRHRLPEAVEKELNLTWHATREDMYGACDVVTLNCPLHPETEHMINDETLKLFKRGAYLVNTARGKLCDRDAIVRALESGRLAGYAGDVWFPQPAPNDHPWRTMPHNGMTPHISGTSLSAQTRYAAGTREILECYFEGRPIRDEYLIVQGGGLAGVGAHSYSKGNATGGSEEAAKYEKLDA
Experiment: X-ray crystal structure, […] A
Assay type: binding
Conditions: active site, co-crystallised with 5 mM NAD+ and 5 mM sodium azide, protein in pH 7.0 phosphate, reservoir pH 6.5, 20 C

NC(=O)c1ccc[n+]([C@@H]2O[C@H](COP(=O)(O)OP(=O)(O)OC[C@H]3O[C@@H](n4cnc5c(N)ncnc54)[C@H](O)[C@@H]3O)[C@@H](O)[C@H]2O)c1 [NAD+]
X-ray crystal structure, 1.1 A (ternary complex with azide): The NAD ^+ molecule and one azide ion are bound in the active site of the enzyme

[N-]=[N+]=[N-] [azide ion]
X-ray crystal structure, 1.1 A (ternary complex with NAD+, inhibitor, transition-state mimic): The NAD ^+ molecule and one azide ion are bound in the active site of the enzyme
